The source of these data is patent US7704995B2 (Exelixis, Inc., priority 2003, dated 2010).

By pIC50 is commonly meant the negative decadic logarithm of the IC50, by convention in mol/L.

What all share (assay type): biochemical
The target of one experiment is T1, Chk2 (Homo sapiens, UniProt O96017).
T1 construct: purchased Upstate Biotechnology
The experiment can be described thus: Chk2 kinase assay: incorporation of γ-33P ATP into immobilized myelin basic protein. The following applies: 20 nM Chk2, 30 μM unlabeled ATP, 1 hour at room temperature; read-out: Chk2 inhibition, IC50. How it is done: Chk1 and Chk2 assays were performed by measuring incorporation of γ-^33P ATP into immobilized myelin basic protein (MBP). High binding white 384 well plates (Greiner) were coated with MBP (Sigma #M-1891) by incubation of 60 ul/well of 20 μg/ml MBP in Tris-buffered saline (TBS; 50 mM Tris pH 8.0, 138 mM NaCl, 2.7 mM KCl) for 24 hours at 4° C. Plates were washed 3× with 100 μl TBS. Kinase reactions were carried out in a total volume of 34 μl in kinase buffer (5 mM Hepes pH 7.6, 15 mM NaCl, 0.01% bovine gamma globulin (Sigma #I-5506), 10 mM MgCl2, 1 mM DTT, 0.02% TritonX-100). Compound dilutions were performed in DMSO and added to assay wells to a final DMSO concentration of 1%. Each data point was measured in duplicate, and at least two duplicate assays were performed for each individual compound determination. […] A mixture of unlabeled ATP and γ-^33P ATP was added to start the reaction (2×10^6 cpm of γ-^33P ATP per well (3000 Ci/mmole) and either 10 μM or 30 μM unlabeled ATP (for Chk1 and Chk2 assays respectively). The reaction was carried out for 1 hour at room temperature with shaking. Plates were washed 7× with TBS, followed by the addition of 50 μl/well scintillation fluid (Wallac). Plates were read using a Wallac Trilux counter. This is only one format of such assays, various other formats are possible, as known to those skilled in the art. […]

The next experiment has as its target KDR (Homo sapiens, UniProt P35968). The experiment can be described thus: Kinase specificity assay (33P phosphoryl transfer, LCCA or AlphaScreen). The following applies: ATP close to KM; read-out: KDR inhibition, IC50. How it is done: Kinase activity and compound inhibition are investigated using one or more of the three assay formats described below. The ATP concentrations for each assay are selected to be close to the Michaelis-Menten constant (KM) for each individual kinase. Dose-response experiments are performed at 10 different inhibitor concentrations in a 384-well plate format.
The coating solution is aspirated and the plates are washed once with 50 μL of assay buffer and padded dry. […] The plates are subsequently washed 6-12 times with PBST or TBS buffer.

Another experiment addresses T2, Chk1 (Homo sapiens, UniProt O14757).
T2 construct: purchased Upstate Biotechnology
T2 sequence (O14757 1-476): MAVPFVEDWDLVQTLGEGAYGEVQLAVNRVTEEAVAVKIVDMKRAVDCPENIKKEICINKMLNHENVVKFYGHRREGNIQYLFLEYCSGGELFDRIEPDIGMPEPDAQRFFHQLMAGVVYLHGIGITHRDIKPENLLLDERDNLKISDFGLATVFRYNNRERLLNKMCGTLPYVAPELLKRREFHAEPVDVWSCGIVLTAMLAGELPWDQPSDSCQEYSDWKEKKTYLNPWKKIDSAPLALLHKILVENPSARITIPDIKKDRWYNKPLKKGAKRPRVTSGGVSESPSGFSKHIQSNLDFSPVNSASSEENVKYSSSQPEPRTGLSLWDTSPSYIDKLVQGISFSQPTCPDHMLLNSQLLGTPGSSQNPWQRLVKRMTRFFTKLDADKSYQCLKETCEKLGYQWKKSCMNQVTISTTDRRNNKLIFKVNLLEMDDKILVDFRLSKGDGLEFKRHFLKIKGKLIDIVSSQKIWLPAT
As to the kind of experiment: Chk1 kinase assay: incorporation of γ-33P ATP into immobilized myelin basic protein. To be noted: 10 nM Chk1, 10 μM unlabeled ATP, 1 hour at room temperature; read-out: Chk1 inhibition, IC50. The gist of the method:
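Chk1 (10 nM) or Chk2 (20 nM) phosphorylated plate-immobilized myelin basic protein for 1 h at room temperature in Hepes pH 7.6 buffer with MgCl2, DTT, 1% DMSO, γ-33P ATP plus 10 μM (Chk1) or 30 μM (Chk2) unlabeled ATP. Bound radioactivity counted by scintillation; IC50 determined, Ki derivable from IC50.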

pIC50: −log10 of the molar value.

T1 sequence (O96017 whole entry): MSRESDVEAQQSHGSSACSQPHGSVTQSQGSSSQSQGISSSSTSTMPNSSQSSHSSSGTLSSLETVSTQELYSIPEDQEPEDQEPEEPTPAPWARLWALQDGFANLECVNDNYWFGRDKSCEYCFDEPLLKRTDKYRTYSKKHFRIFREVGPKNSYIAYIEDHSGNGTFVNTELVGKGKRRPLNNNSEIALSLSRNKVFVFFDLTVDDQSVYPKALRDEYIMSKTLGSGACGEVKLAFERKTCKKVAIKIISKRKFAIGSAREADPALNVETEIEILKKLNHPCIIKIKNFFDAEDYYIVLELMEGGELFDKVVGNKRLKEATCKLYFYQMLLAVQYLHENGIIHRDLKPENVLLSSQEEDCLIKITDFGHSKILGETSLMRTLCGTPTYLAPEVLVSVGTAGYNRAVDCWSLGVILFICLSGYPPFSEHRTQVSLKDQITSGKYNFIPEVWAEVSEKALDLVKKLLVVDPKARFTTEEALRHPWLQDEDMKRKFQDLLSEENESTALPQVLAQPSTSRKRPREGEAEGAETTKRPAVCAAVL
Sequence of KDR (P35968 20-1356): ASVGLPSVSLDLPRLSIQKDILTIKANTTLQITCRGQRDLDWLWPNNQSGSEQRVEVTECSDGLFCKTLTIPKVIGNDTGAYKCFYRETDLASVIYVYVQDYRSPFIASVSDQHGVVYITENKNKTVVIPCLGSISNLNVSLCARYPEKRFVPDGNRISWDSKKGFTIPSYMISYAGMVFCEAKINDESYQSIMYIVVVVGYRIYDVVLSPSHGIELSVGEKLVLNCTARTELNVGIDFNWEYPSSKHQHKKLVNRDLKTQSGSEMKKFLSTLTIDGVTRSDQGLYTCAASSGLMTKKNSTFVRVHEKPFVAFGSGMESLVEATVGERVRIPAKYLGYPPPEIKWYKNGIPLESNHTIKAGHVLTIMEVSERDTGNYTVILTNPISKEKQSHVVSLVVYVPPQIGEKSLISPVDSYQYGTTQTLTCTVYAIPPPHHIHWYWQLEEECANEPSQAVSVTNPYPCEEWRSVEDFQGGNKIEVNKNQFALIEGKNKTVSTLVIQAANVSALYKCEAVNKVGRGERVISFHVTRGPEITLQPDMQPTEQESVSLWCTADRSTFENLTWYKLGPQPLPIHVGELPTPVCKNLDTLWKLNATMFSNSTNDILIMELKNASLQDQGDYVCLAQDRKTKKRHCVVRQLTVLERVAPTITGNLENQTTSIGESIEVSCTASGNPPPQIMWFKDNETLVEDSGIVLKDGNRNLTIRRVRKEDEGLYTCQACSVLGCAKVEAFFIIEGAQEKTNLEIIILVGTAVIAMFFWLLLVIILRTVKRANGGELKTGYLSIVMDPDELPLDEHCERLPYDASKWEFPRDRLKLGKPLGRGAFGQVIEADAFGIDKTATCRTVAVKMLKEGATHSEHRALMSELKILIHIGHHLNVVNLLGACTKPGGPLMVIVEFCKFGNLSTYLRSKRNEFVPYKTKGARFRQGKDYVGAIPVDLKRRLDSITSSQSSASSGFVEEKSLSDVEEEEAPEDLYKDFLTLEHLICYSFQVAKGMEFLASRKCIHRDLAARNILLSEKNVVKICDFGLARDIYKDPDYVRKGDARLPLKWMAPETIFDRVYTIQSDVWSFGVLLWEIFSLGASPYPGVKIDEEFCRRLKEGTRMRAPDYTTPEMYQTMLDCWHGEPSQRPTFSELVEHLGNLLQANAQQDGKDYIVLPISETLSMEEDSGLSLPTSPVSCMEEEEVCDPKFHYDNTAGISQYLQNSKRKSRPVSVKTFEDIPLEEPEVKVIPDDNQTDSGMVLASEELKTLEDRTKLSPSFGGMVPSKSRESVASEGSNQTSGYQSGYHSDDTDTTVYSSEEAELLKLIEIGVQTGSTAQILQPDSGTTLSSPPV

Consider `NC(=O)c1nc(-c2cccc3ccccc23)cnc1N` [Example 2, 3-Amino-6-naphthalen-1-ylpyrazine-2-carboxamide], for which the pIC50 at Chk2 was > 7.30; at KDR it was 6.00 to 7.30; at Chk1, > 7.30.
